Reference: ChEMBL document CHEMBL1148909, “Antineoplastic agents. 535. Isolation and structure of plakorstatins 1 and 2 from the Indo-Pacific sponge Plakortis nigra” (2004)
Values after ≈ are worked out from the molar mass of the structure shown.

Test system: P388
Assay: Growth inhibition of mouse P388 cells
Format: functional
Conditions: read-out: ED50 (the source's name)

## CC/C(=C\[C@@]1(CC)C[C@H](CC)[C@H](CC(=O)OC)OO1)[C@H]1O[C@H]1CC (single isomer, unassigned) [PLAKORSTATIN 1]
  EC50: 1.1 µg/mL (≈ 3.23 µM)

## CC/C(=C\[C@@]1(CC)C[C@H](CC)[C@H](CC(=O)OC)OO1)[C@@H]1O[C@@H]1CC (single isomer, unassigned) [PLAKORSTATIN 2]
  EC50: 0.91 µg/mL (≈ 2.67 µM)
